# From paper PMC7345905, “Microbial Metabolite Urolithin B Inhibits Recombinant Human Monoamine Oxidase A Enzyme” (Metabolites, 2020)
# Several values for one entry are separate records, joined by “and”; a condition that tells them apart may be missing. Equal entries are not always repeated.
# Experiments:
# human recombinant MAO-A = biological target: T1, human recombinant MAO-A (Homo sapiens, UniProt P21397); test: MAO-Glo MAO-A inhibition assay; type: biochemical; settings: for IC50: 0–50 μM range, 160 µM substrate, 37 °C, 1 h, read-out: IC50 for MAO-A inhibitory activity; for MAO-A enzyme assay, Percent of control: N=1-3; for inhibition of MAO-A enzyme activity: compared to vehicle
# T1 construct: purchased Sigma-Aldrich
# T1 sequence (P21397 1-527): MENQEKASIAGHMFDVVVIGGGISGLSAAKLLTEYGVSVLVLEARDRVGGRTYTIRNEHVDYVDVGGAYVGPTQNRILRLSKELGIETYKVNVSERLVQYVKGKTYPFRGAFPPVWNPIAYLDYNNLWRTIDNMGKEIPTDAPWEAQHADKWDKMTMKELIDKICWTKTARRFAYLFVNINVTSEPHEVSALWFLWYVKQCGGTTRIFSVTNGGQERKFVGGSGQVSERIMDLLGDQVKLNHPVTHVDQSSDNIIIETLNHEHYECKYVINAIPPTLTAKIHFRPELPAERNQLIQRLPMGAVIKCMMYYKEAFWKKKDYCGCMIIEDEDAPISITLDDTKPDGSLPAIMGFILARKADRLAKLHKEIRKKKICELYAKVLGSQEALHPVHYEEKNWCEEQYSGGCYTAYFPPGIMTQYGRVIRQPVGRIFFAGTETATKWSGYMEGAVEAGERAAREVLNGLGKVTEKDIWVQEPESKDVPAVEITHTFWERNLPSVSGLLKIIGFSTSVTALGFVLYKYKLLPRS
# Protocol: (§1) MAO inhibition assays were performed using a MAO-Glo™ Assay kit (Promega) according to the manufacturer’s instructions. Briefly, 1 µg of human recombinant MAO-A and MAO-B enzyme isoforms were incubated with 160 and 16 µM of MAO substrates, respectively. […] The enzyme reaction was quenched by the addition of a luciferin detection reagent. […] An equal volume of dimethyl sulfoxide (0.1%) was added to the enzyme assay as a control. After 1 h of incubation, the luminescence was measured with a multimode microplate reader (Synergy HT, BioTek, Winooski, VT, USA) to determine the MAO enzyme activities. Initially, the inhibition potential of all the test compounds was evaluated at a concentration of 100 μM. The control reaction (with no inhibitor) with vehicle (DMSO 0.1%) was set at 100% activity. To determine IC50 of the test compounds, the dose dependent enzyme assays were performed. We used range of 0.1 to 50 μM concentrations for MAO-A and 0.1 to 200 μM concentrations of test compounds for the MAO-B enzyme activities. The type of enzyme inhibition was determined using variable concentrations of MAO-A substrate (10–360 µM) and MAO-B substrate (2–64 µM) for the respective enzyme assay. […] A Lineweaver–Burk double reciprocal plot was generated, and the mode of inhibition was determined by visual examination of the plot. The slope of the reciprocal plots was plotted against the inhibitor concentrations and determined the x-axis intercept that represented the inhibitor constant, Ki value.
# human recombinant MAO-B = biological target: T2, human recombinant MAO-B (Homo sapiens, UniProt P27338); test: MAO-Glo MAO-B inhibition assay; type: biochemical; settings: N=1-3
# T2 construct: purchased Sigma-Aldrich
# T2 sequence (P27338 1-520): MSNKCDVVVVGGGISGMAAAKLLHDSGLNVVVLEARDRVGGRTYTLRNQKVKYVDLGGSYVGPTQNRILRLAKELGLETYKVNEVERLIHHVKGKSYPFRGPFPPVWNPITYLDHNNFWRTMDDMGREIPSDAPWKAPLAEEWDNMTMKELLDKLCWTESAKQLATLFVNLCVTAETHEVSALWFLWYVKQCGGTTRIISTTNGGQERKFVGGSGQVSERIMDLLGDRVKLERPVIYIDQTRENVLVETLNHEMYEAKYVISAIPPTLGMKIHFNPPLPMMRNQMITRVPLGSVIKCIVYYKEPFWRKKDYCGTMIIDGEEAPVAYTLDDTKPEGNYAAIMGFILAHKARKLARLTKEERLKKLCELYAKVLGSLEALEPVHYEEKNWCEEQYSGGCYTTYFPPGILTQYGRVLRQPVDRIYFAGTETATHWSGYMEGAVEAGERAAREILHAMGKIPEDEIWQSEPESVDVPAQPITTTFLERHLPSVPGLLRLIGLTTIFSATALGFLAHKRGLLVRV
# Protocol: as §1
smiles,measurement,setting,value
"O=c1oc2cc(O)ccc2c2cc(O)c(O)cc12 [UC, urolithin-C]",IC50,human recombinant MAO-A,29.6 ± 1.8 µM
same,"MAO-A enzyme assay, Percent of control","human recombinant MAO-A; 0.1 µM, listed as UroC",81.5785% of control and 83.2586% of control and 93.5154% of control
same,"MAO-A enzyme assay, Percent of control","human recombinant MAO-A; 0.5 µM, listed as UroC",88.4995% of control and 88.7443% of control and 76.6736% of control
same,"MAO-A enzyme assay, Percent of control","human recombinant MAO-A; 1 µM, listed as UroC",95.9222% of control and 92.2777% of control and 91.5145% of control
same,"MAO-A enzyme assay, Percent of control","human recombinant MAO-A; 5 µM, listed as UroC",81.1285% of control and 71.4874% of control and 89.8253% of control
same,"MAO-A enzyme assay, Percent of control","human recombinant MAO-A; 10 µM, listed as UroC",68.5636% of control and 69.9396% of control and 63.7804% of control
same,"MAO-A enzyme assay, Percent of control","human recombinant MAO-A; 25 µM, listed as UroC",64.6896% of control and 58.5532% of control and 52.6539% of control
same,"MAO-A enzyme assay, Percent of control","human recombinant MAO-A; 50 µM, listed as UroC",46.6421% of control and 44.3022% of control and 44.6686% of control
same,"MAO-A enzyme assay, Percent of control","human recombinant MAO-A; 100 µM (Figure 1A), listed as UroC, 100 µM",11.345% of control and 12.577% of control and 11.352% of control
same,inhibition of MAO-A enzyme activity,human recombinant MAO-A; 100 µM,88%
same,"MAO-B enzyme assay, Percent of control","human recombinant MAO-B; 0.1 µM, listed as UroC",110.306% of control and 101.117% of control and 109.128% of control
same,"MAO-B enzyme assay, Percent of control","human recombinant MAO-B; 1 µM, listed as UroC",102.407% of control and 98.5247% of control and 98.1149% of control
same,"MAO-B enzyme assay, Percent of control","human recombinant MAO-B; 10 µM, listed as UroC",102.182% of control and 94.8161% of control and 92.9925% of control
same,"MAO-B enzyme assay, Percent of control","human recombinant MAO-B; 25 µM, listed as UroC",89.5195% of control and 89.6937% of control and 94.0068% of control
same,"MAO-B enzyme assay, Percent of control","human recombinant MAO-B; 50 µM, listed as UroC",87.5627% of control and 83.096% of control and 84.7864% of control
same,"MAO-B enzyme assay, Percent of control","human recombinant MAO-B; 100 µM (Figure 1C), listed as UroC, 100 µM",86.1998% of control and 88.2904% of control and 90.5046% of control
same,"MAO-B enzyme assay, Percent of control","human recombinant MAO-B; 100 µM, listed as UroC",82.8808% of control and 77.9531% of control and 81.7949% of control
same,"MAO-B enzyme assay, Percent of control","human recombinant MAO-B; 200 µM, listed as UroC",43.4074% of control and 44.8007% of control and 46.1838% of control
"O=c1oc2cc(O)ccc2c2ccc(O)cc12 [UA, urolithin-A]",IC50,human recombinant MAO-A,5.88 ± 0.69 µM
same,"MAO-A enzyme assay, Percent of control","human recombinant MAO-A; 0.1 µM, listed as UroA",103.587% of control and 97.8592% of control and 101.542% of control
same,"MAO-A enzyme assay, Percent of control","human recombinant MAO-A; 0.5 µM, listed as UroA",95.9845% of control and 94.0414% of control and 95.8492% of control
same,"MAO-A enzyme assay, Percent of control","human recombinant MAO-A; 1 µM, listed as UroA",62.4789% of control and 79.8224% of control and 85.3157% of control
same,"MAO-A enzyme assay, Percent of control","human recombinant MAO-A; 5 µM, listed as UroA",59.251% of control and 60.0082% of control and 51.3175% of control
same,"MAO-A enzyme assay, Percent of control","human recombinant MAO-A; 10 µM, listed as UroA",48.1185% of control and 46.1024% of control and 43.7898% of control
same,"MAO-A enzyme assay, Percent of control","human recombinant MAO-A; 25 µM, listed as UroA",24.6659% of control and 27.2749% of control and 27.3403% of control
same,"MAO-A enzyme assay, Percent of control","human recombinant MAO-A; 50 µM, listed as UroA",13.9758% of control and 16.0253% of control and 16.3887% of control
same,"MAO-A enzyme assay, Percent of control","human recombinant MAO-A; 100 µM (Figure 1A), listed as UroA, 100 µM",13.2811% of control and 14.5442% of control and 14.4558% of control
same,inhibition of MAO-A enzyme activity,human recombinant MAO-A; 100 µM,86%
same,"MAO-B enzyme assay, Percent of control","human recombinant MAO-B; 0.1 µM, listed as UroA",100.912% of control and 101.373% of control and 99.9795% of control
same,"MAO-B enzyme assay, Percent of control","human recombinant MAO-B; 1 µM, listed as UroA",93.9146% of control and 96.8343% of control and 95.7816% of control
same,"MAO-B enzyme assay, Percent of control","human recombinant MAO-B; 10 µM, listed as UroA",91.0665% of control and 92.3573% of control and 93.7097% of control
same,"MAO-B enzyme assay, Percent of control","human recombinant MAO-B; 25 µM, listed as UroA",94.1092% of control and 90.4928% of control
same,"MAO-B enzyme assay, Percent of control","human recombinant MAO-B; 50 µM, listed as UroA",81.2724% of control and 83.4341% of control and 89.5093% of control
same,"MAO-B enzyme assay, Percent of control","human recombinant MAO-B; 100 µM (Figure 1C), listed as UroA, 100 µM",76.7559% of control and 78.826% of control and 78.8568% of control
same,"MAO-B enzyme assay, Percent of control","human recombinant MAO-B; 100 µM, listed as UroA",71.1402% of control and 80.3709% of control and 83.4443% of control
same,"MAO-B enzyme assay, Percent of control","human recombinant MAO-B; 200 µM, listed as UroA",40.5081% of control and 42.2805% of control and 48.6733% of control
"O=c1oc2cc(O)ccc2c2ccccc12 [UB, urolithin-B]",IC50,human recombinant MAO-A,0.88 µM
same,"MAO-A enzyme assay, Percent of control","human recombinant MAO-A; 0.1 µM, listed as UroB",101.662% of control and 98.0675% of control and 93.5275% of control
same,"MAO-A enzyme assay, Percent of control","human recombinant MAO-A; 0.5 µM, listed as UroB",64.4524% of control and 74.8902% of control and 80.9217% of control
same,"MAO-A enzyme assay, Percent of control","human recombinant MAO-A; 1 µM, listed as UroB",51.8207% of control and 51.0498% of control and 41.9972% of control
same,"MAO-A enzyme assay, Percent of control","human recombinant MAO-A; 5 µM, listed as UroB",37.9544% of control and 37.4055% of control and 33.2487% of control
same,"MAO-A enzyme assay, Percent of control","human recombinant MAO-A; 10 µM, listed as UroB",21.8683% of control and 19.2684% of control and 22.2499% of control
same,"MAO-A enzyme assay, Percent of control","human recombinant MAO-A; 25 µM, listed as UroB",10.1321% of control and 11.7696% of control and 12.9039% of control
same,"MAO-A enzyme assay, Percent of control","human recombinant MAO-A; 50 µM, listed as UroB",6.787% of control and 6.156% of control and 5.227% of control
same,"MAO-A enzyme assay, Percent of control","human recombinant MAO-A; 100 µM (Figure 1A), listed as UroB, 100 µM",5.573% of control and 6.858% of control and 6.006% of control
same,inhibition of MAO-A enzyme activity,human recombinant MAO-A; 100 µM,94%
same,"MAO-B enzyme assay, Percent of control","human recombinant MAO-B; 0.1 µM, listed as UroB",107.968% of control and 101.629% of control and 95.3271% of control
same,"MAO-B enzyme assay, Percent of control","human recombinant MAO-B; 1 µM, listed as UroB",109.561% of control and 99.5806% of control and 93.6856% of control
same,"MAO-B enzyme assay, Percent of control","human recombinant MAO-B; 10 µM, listed as UroB",97.6995% of control and 92.8109% of control and 92.0441% of control
same,"MAO-B enzyme assay, Percent of control","human recombinant MAO-B; 25 µM, listed as UroB",95.5787% of control and 94.7999% of control and 85.3343% of control
same,"MAO-B enzyme assay, Percent of control","human recombinant MAO-B; 50 µM, listed as UroB",93.9851% of control and 85.8855% of control and 84.5675% of control
same,"MAO-B enzyme assay, Percent of control","human recombinant MAO-B; 100 µM (Figure 1C), listed as UroB, 100 µM",92.2554% of control and 86.0762% of control and 81.4109% of control
same,"MAO-B enzyme assay, Percent of control","human recombinant MAO-B; 100 µM, listed as UroB",74.6465% of control and 81.8955% of control and 81.8476% of control
same,"MAO-B enzyme assay, Percent of control","human recombinant MAO-B; 200 µM, listed as UroB",35.5859% of control and 42.116% of control and 26.5397% of control
